SMILES strings stand for the structures.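 Tested at 5 concentrations; 48 h exposure; 96-well plates; endpoints linearly interpolated, else capped at highest concentration. TGI: total growth inhibition.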

The TGI is the concentration at which net growth stops. Lower therefore signals greater sensitivity of the cells.

Test systems include COLO 205 colon; SNB-75 CNS; SK-MEL-28 melanoma; HCT-116 colon; EKVX NSCLC; MOLT-4 leukemia; SK-OV-3 ovarian; SK-MEL-5 melanoma; HOP-92 NSCLC; OVCAR-3 ovarian.
What all share (experiment): DTP human tumour cell line panel, 48 h

For the molecule `Cc1c2cccc-2ccc2c1[nH]c1ccccc12`, the TGI with COLO 205 colon was determined as 3.68 µM; in the assay with SNB-75 CNS, 4.33 µM; in the assay with SK-MEL-28 melanoma, 3.67 µM; in the assay with HCT-116 colon, 4.96 µM; in the assay on EKVX NSCLC, 3.68 µM; in the assay with MOLT-4 leukemia it was 28.2 µM. In addition, the TGI in the assay on SK-OV-3 ovarian was found to be 11 µM; in the assay on SK-MEL-5 melanoma it was 3.34 µM; in the assay on HOP-92 NSCLC, 7.75 µM; in the assay on OVCAR-3 ovarian, 6.03 µM.
As to `Cc1cc([N+](=O)[O-])c(S(=O)(=O)c2ccccc2)c([N+](=O)[O-])c1`, the concentration for total growth inhibition (TGI) with COLO 205 colon was 24 µM; in the assay with SNB-75 CNS, 47.3 µM; in the assay on SK-MEL-28 melanoma, 40.9 µM; in the assay with HCT-116 colon it was 22.5 µM; in the assay with EKVX NSCLC it was more than 72.5 µM; with MOLT-4 leukemia, more than 28.9 µM. The TGI was determined as 74.7 µM with SK-OV-3 ovarian, 27.8 µM in the assay with SK-MEL-5 melanoma, 5.28 µM in the assay with HOP-92 NSCLC and 11.4 µM with OVCAR-3 ovarian.
`CC1=C2C(=O)c3ccccc3C(=O)[C@H]2C[C@@H](N2CCCCCC2=O)O1`: the TGI with COLO 205 colon was 32.2 µM; with SNB-75 CNS, 45.1 µM; in the assay with SK-MEL-28 melanoma it was 35.7 µM; in the assay with EKVX NSCLC, 57 µM; in the assay with MOLT-4 leukemia, 58.5 µM; in the assay with SK-OV-3 ovarian, more than 100 µM. Besides, the TGI was 29.6 µM in the assay with SK-MEL-5 melanoma, 36 µM with HOP-92 NSCLC and 38.2 µM with OVCAR-3 ovarian.
Consider `CC(c1ccccc1)N1CC(C)(c2ccccc2)N(O)C(c2ccccc2)C1C` (stereo not drawn), for which the TGI in the assay with COLO 205 colon was determined as 23.7 µM; in the assay with SNB-75 CNS, 55.2 µM; with SK-MEL-28 melanoma, 21.9 µM; in the assay on HCT-116 colon, 11.6 µM; with EKVX NSCLC it was 62.1 µM; with MOLT-4 leukemia it was 29.8 µM. Also, the TGI with SK-OV-3 ovarian stood at 87.8 µM; in the assay on HOP-92 NSCLC, 8.36 µM; in the assay on OVCAR-3 ovarian, 40.8 µM.
In the case of `CC(C)(C)OC(=O)N1CCc2c(n(C/C=C/c3ccccc3)[nH]c2=O)C1`, the concentration for total growth inhibition (TGI) with COLO 205 colon, in the assay on SNB-75 CNS, in the assay with SK-MEL-28 melanoma, in the assay with HCT-116 colon, in the assay on EKVX NSCLC and in the assay on MOLT-4 leukemia was more than 100 µM in each case. In addition, the TGI in the assay on SK-OV-3 ovarian, in the assay with SK-MEL-5 melanoma, in the assay on HOP-92 NSCLC and with OVCAR-3 ovarian was more than 100 µM in each case.
As for `O=S(=O)(O)C1CCC(O)C2[N-]CCCC21.O=S(=O)(O)C1CCC(O)C2[N-]CCCC21.[Zn+2]` (stereo not drawn), the TGI in the assay on COLO 205 colon, in the assay on SNB-75 CNS, with SK-MEL-28 melanoma, with HCT-116 colon, in the assay with EKVX NSCLC and with MOLT-4 leukemia was more than 100 µM in each case. Further, the TGI in the assay on SK-OV-3 ovarian, in the assay with SK-MEL-5 melanoma, in the assay on HOP-92 NSCLC and with OVCAR-3 ovarian was more than 100 µM each time.
As for `NC(=O)C1=CC2C3C=CC2(O)C(=O)OC3O1` (stereo not drawn), the TGI in the assay with COLO 205 colon came to 16.1 µM; in the assay with SNB-75 CNS it was 29.4 µM; in the assay with SK-MEL-28 melanoma, 8.48 µM; in the assay with HCT-116 colon, 7.41 µM; in the assay with EKVX NSCLC it was 13.5 µM; with MOLT-4 leukemia it was 8.78 µM. Further, the TGI with SK-OV-3 ovarian stood at 57.4 µM; with SK-MEL-5 melanoma, 6.32 µM; in the assay on HOP-92 NSCLC, 6.73 µM; in the assay with OVCAR-3 ovarian, 24.7 µM.
For the molecule `Nc1c(N=Nc2ccc(-c3ccc(N=Nc4c(O)ccc5cc(S(=O)(=O)O)cc(S(=O)(=O)O)c45)cc3)cc2)c(S(=O)(=O)O)cc2cc(S(=O)(=O)O)c(N=Nc3ccccc3)c(O)c12`, the TGI was more than 100 µM in the assay with COLO 205 colon; 90.7 µM in the assay on SNB-75 CNS; more than 100 µM in the assay on SK-MEL-28 melanoma; more than 100 µM with HCT-116 colon; more than 100 µM with EKVX NSCLC; more than 100 µM with MOLT-4 leukemia. In addition, the TGI in the assay on SK-OV-3 ovarian, in the assay with SK-MEL-5 melanoma, in the assay on HOP-92 NSCLC and in the assay on OVCAR-3 ovarian was more than 100 µM throughout.
Regarding `CCCCCCOP(=O)(OCCCCCC)OC(C(=O)OC)C(F)(F)F` (stereo not drawn), the TGI in the assay with COLO 205 colon, in the assay with SNB-75 CNS, in the assay on SK-MEL-28 melanoma, with HCT-116 colon, in the assay with EKVX NSCLC and in the assay with MOLT-4 leukemia was more than 100 µM throughout. The TGI in the assay on SK-OV-3 ovarian, in the assay on SK-MEL-5 melanoma, with HOP-92 NSCLC and with OVCAR-3 ovarian was more than 100 µM each time.
For the molecule `CC(=O)NC1=C(NCC(C)C)C(=O)c2ccccc2C1=O`, the TGI was more than 100 µM in the assay with COLO 205 colon; 31.1 µM with SNB-75 CNS; 37.2 µM with SK-MEL-28 melanoma; 35.2 µM in the assay on HCT-116 colon; 59.9 µM in the assay on EKVX NSCLC; more than 100 µM in the assay with MOLT-4 leukemia. Moreover, the TGI in the assay with SK-OV-3 ovarian was more than 100 µM; with SK-MEL-5 melanoma it was 43.6 µM; in the assay on HOP-92 NSCLC, 28.3 µM; in the assay with OVCAR-3 ovarian, 32.4 µM.
In the case of `CCCCCCCCCCCCCCCCOCC(Cl)COP(=O)(O)OP(=O)(O)OCC1OC(n2cnc3c(N)ncnc32)C(O)C1O` (stereo not drawn), the TGI in the assay on COLO 205 colon was more than 100 µM; in the assay with SNB-75 CNS, 89.7 µM; in the assay with SK-MEL-28 melanoma it was more than 100 µM; in the assay with HCT-116 colon it was more than 100 µM; in the assay on EKVX NSCLC, more than 100 µM; in the assay on MOLT-4 leukemia, more than 100 µM. Further, the TGI in the assay on SK-OV-3 ovarian, with SK-MEL-5 melanoma, in the assay on HOP-92 NSCLC and in the assay on OVCAR-3 ovarian was more than 100 µM in each case.
`CCN(CC)CCCCC1CCN(CC(=O)N2c3ccccc3NC(=O)CC2C)CC1` (stereo not drawn): the TGI in the assay with COLO 205 colon, in the assay with SNB-75 CNS, with SK-MEL-28 melanoma, in the assay on HCT-116 colon, in the assay with EKVX NSCLC and with MOLT-4 leukemia was more than 100 µM in each case. In addition, the TGI with SK-OV-3 ovarian, in the assay with SK-MEL-5 melanoma, in the assay on HOP-92 NSCLC and in the assay with OVCAR-3 ovarian was more than 100 µM throughout.
Regarding `COC1=CC(=O)C2=C(C1=O)[C@H]1CC[C@]3(C)[C@@H](OC(C)=O)CC[C@H]3[C@@H]1CC2`, the TGI was more than 100 µM in the assay with COLO 205 colon; more than 100 µM with SNB-75 CNS; more than 100 µM in the assay with SK-MEL-28 melanoma; more than 100 µM in the assay with HCT-116 colon; 28.5 µM in the assay with EKVX NSCLC; 84 µM in the assay on MOLT-4 leukemia. The TGI with SK-OV-3 ovarian is more than 100 µM; with SK-MEL-5 melanoma, 48.8 µM; in the assay with HOP-92 NSCLC, 24 µM; with OVCAR-3 ovarian, more than 100 µM.

These data come from PubChem BioAssay (NCI).
